Source: patent EP0563814A2, “Carbonic acid esters of 2-amino-7-(1,3-dihydroxy-2-propoxymethyl)purines, their preparation and their use as antiviral agents” (HOECHST AKTIENGESELLSCHAFT, priority 1992, dated 1993)
Where two headings read alike, the source gives them in different places.

Experiments:
[1] = Oral bioavailability in the mouse; format: in vivo, Maus; conditions: for AUC(0-inf): analyte Formel 1', read-out: AUD (0-->oo) (converted)
Excerpt: Folgende Bioverfügbarkeiten der Verbindungen der Formel 1' wurden bei Mäusen nach oraler Gabe der erfindungsgemäßen Verbindungen ermittelt: […]

[2] = tested on: Herpes simplex 1 Virus (HSV-1); test: Activity against systemic HSV-1 infection in the NMRI mouse, oral treatment; format: in vivo, NMRI-Mäuse; conditions: i.p. infection, observation two weeks
Excerpt: Wirkung gegen systemische Herpes simplex 1 Virus (HSV-1) Infektion: NMRI-Mäuse, spezifisch pathogenfrei, im Gewicht von 15-18 g wurden intraperitoneal mit HSV-1 infiziert und anschließend mit den erfindungsgemäßen Verbindungen oral therapiert. Die Behandlung erfolgte erstmals 3 Stunden nach der Infektion und wurde zweimal täglich über 4 Tage fortgesetzt. Der Behandlungserfolg wurde anhand des Krankheitsverlaufes und der Überlebensrate gegenüber der unbehandelten Infektionskontrolle bestimmt. Letztere erhielt anstelle der erfindungsgemäßen Verbindungen physiologische Kochsalzlösung appliziert. Die Beobachtungszeit betrug zwei Wochen. Tabelle 1 zeigt die Ergebnisse dieser Untersuchung. Tabelle 1

SMILES	Bioverfügbarkeit ([1]; i.v., 25 mg/kg, availability of Formel 1')	AUC(0-inf) ([1]; in vivo, iv, 25 mg/kg)	AUC(0-inf) ([1]; in vivo, po, 100 mg/kg)	bioavailability ([1]; in vivo, po, 100 mg/kg, availability of Formel 1', read-out: Bioverfügbarkeit)	mittlere Überlebenszeit (Tage) ([2]; 9 x 10 µmol/kg)	Überlebende/ Gruppengröße ([2]; 9 x 10 µmol/kg)	mittlere Überlebenszeit (Tage) ([2]; 9 x 30 µmol/kg)	Überlebende/ Gruppengröße ([2]; 9 x 30 µmol/kg)	Überlebende/ Gruppengröße ([2]; 9 x 100 µmol/kg)	mittlere Überlebenszeit (Tage) ([2]; 9 x 100 µmol/kg)
Nc1ncc2c(ncn2COC(CO)CO)n1 [Formel 1', 2-Amino-7-[(1,3-dihydroxy-2-propoxy)methyl]purin, reference compound]	100%	223 ng·h/mL	154 ng·h/mL	17.2%	10.5 ± 0.7 Tage	3/5	9.5 ± 1.3 Tage	1/5	5/5	–
CC(=O)OCC(COC(C)=O)OCn1cnc2nc(N)ncc21 [Beispiel 1, 2-Amino-7-[(1,3-bis-acetoxy-2-propoxy)methyl]purin]	–	–	–	–	> 14 Tage	5/5	> 14 Tage	5/5	5/5	> 14 Tage
CCCC(=O)OCC(COC(=O)CCC)OCn1cnc2nc(N)ncc21 [Beispiel 2, 2-Amino-7-[(1,3-bis-butyryloxy-2-propoxy)methyl]purin]	–	–	–	–	–	–	–	5/5	5/5	–
CCC(=O)OCC(COC(=O)CC)OCn1cnc2nc(N)ncc21 [Beispiel 3, 2-Amino-7-[(1,3-bis-propionyloxy-2-propoxy)methyl]purin]	–	–	–	–	–	–	–	5/5	5/5	–
